Earlier results, collected in patent US20100136125A1, “METHOD OF TREATING INFLAMMATORY BOWEL DISEASE” (Jacobus Pharmaceutical Company, Inc., priority 2006, published 2010).
Where two headings read alike, the source gives them in different places.

How the values were obtained:
ulcerative colitis = conditions: topical
[1] = tested on: quiescent Crohn's ileocolitis; conditions: 1.5 g/d slow release, maintenance therapy
[2] = molecular target: T1, thiopurine methyltransferase (TPMT) (Homo sapiens, UniProt P51580); conditions: in vitro kinetic studies; read-out: IC50, non-competitive inhibition of TPMT
T1 sequence (P51580 1-245): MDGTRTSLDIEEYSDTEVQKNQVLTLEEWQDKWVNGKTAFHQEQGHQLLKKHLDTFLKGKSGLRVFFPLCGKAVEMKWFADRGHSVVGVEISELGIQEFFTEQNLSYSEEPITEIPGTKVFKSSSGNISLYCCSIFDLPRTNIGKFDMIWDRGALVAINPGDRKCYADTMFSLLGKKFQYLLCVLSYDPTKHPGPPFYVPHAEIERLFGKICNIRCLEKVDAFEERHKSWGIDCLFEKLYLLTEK

[3] = in vivo
[4] = children, 300 mg/kg/day in 5 equal doses
[5] = tested on: active left-sided ulcerative colitis; conditions: 2 gram nightly retention enema, p<0.005 vs placebo
[6] = not given; remark: listed apart in the source
[7] = tested on: distal ulcerative colitis; conditions: enema 2 g bid, open-label
Crohn's disease [8] = tested on: Crohn's disease
Crohn's disease [9] = conditions: in vivo
[10] = dose 4.0 gm PASER, 2.6-2.8 gm salts

Nc1ccc(C(=O)O)c([O-])c1.Nc1ccc(C(=O)O)c([O-])c1.[Ca+2] [Ca++ PAS]
AOC0-∞ (in vivo): 326.83 µg·h/mL
Cmax (in vivo): 139.51 µg/mL
Tmax (in vivo): 61.2 min

Nc1ccc(O)c(C(=O)O)c1 [5-ASA, 5-aminosalicylic acid]
clinical improvement within 2 weeks (ulcerative colitis): 79%
histologic improvement within 2 weeks (ulcerative colitis): 44%
sigmoidoscopic improvement within 2 weeks (ulcerative colitis): 78%
relapse rate after one year [1]: 38%
anti-tuberculous activity (tuberculosis): no anti-tuberculous activity
IC50 [2]: 1240 µM

Nc1ccc(C(=O)[O-])c(O)c1.[K+] [K+ PAS]
AOC0-∞ [10]: 313.22 µg·h/mL
Cmax [10]: 121.09 µg/mL
Tmax [10]: 66 min

Nc1ccc(C(=O)O)c(O)c1 [4-ASA, 4-aminosalicylic acid]
clinical improvement within 2 weeks (ulcerative colitis): 79%
histologic improvement within 2 weeks (ulcerative colitis): 44%
sigmoidoscopic improvement within 2 weeks (ulcerative colitis): 78%
relapse rate after one year [1]: 36%
half-life [3]: 50 min
serum level after 4 hours [4]: 2-2.5 mg percent
serum level of 4-ASA 60 minutes after oral solution [4]: ≤ 120 micrograms/ml
MIC (tuberculosis; bacteriostatic): under 2 μg/ml
IC50 [2]: 2600 µM
significant improvement in clinical, sigmoidoscopic and histologic variables after 8 weeks [5]: 83%
excreted in the urine ([6]; in vivo): ≤ 80%
half-life of free 4-ASA ([6]; renal disease): 30.8 min
dosage excreted in acetylated form ([6]; urine): ≥ 50%
half-life of free 4-ASA ([6]; without renal disease): 26.4 min
participants with complete resolution of symptoms and sigmoidoscopic abnormalities by 8 weeks [7]: 46%
additional participants experiencing improvement ([7]; 8 weeks): 31%

infliximab: TNF antagonist, chimeric monoclonal antibody cA2 to tumor necrosis factor α
remission rate (Crohn's disease [8]; at 4 weeks): 33%
response rate (Crohn's disease [8]; at 4 weeks): 65%
remission (CDAI<150 and IBDQ>170-190) (Crohn's disease [8]; by two weeks): 27%
response (decrease in CDAI≧70 points) (Crohn's disease [8]; by two weeks): 61%

granulocyte-macrophage stimulating factor: granulocyte-macrophage stimulating factor studied in active Crohn's disease
time by which significant clinical activity is demonstrated (Crohn's disease [9]): ≤ 15 days

O=C(O)c1cc(/N=N/c2ccc(S(=O)(=O)Nc3ccccn3)cc2)ccc1O [sulfasalazine]
IC50 [2]: 78 µM

Nc1cccc(C(=O)O)c1O [3-ASA]
IC50 [2]: 99 µM

Acetyl-para-aminosalicylate [Ac-PAS]
half-life of the acetylated metabolite ([6]; normals): 51 min
half-life of the acetylated metabolite ([6]; uremic patients): 309 min

Nc1ccc(C(=O)[O-])c(O)c1.[Na+] [Na+ PAS]
AOC0-∞ (in vivo): 313.22 µg·h/mL
Cmax (in vivo): 155.44 µg/mL
Tmax (in vivo): 49.8 min
